Measurements: US20260070945A1, “MACROCYCLIC IMMUNOMODULATORS” (Bristol-Myers Squibb Company, priority 2022, published 2026)
Where a SMILES comes first, the peptide text is derived from it. Bridges are numbered along the chain shown (N, C = ends). [ ]: non-standard residue; d: D form. The star is where a group is joined. ξ: configuration not given here. Phe(4-COOH) = N[C@@H](Cc1ccc(C(=O)O)cc1)C(=O)O; Bip = N[C@@H](Cc1ccc(-c2ccccc2)cc1)C(=O)O; Phe(3-Me) = Cc1cccc(C[C@H](N)C(=O)O)c1; hArg = N=C(N)NCCCC[C@H](N)C(=O)O; 4Pal = N[C@@H](Cc1ccncc1)C(=O)O; Cha = N[C@@H](CC1CCCCC1)C(=O)O; Ile(3ξ) = CCC(C)[C@H](N)C(=O)O; Thr(3ξ) = CC(O)[C@H](N)C(=O)O; dOrn = NCCC[C@@H](N)C(=O)O; Carboxymethyl = O=C(O)C*; NMeA = CN[C@@H](C)C(=O)O; Orn = NCCC[C@H](N)C(=O)O; Aun = NCCCCCCCCCCC(=O)O; Dab = NCC[C@H](N)C(=O)O; Dap = NC[C@H](N)C(=O)O; AEEA = NCCOCCOCC(=O)O

What follows are molecules tested against T1, PD-1/PD-L1 interaction (PE-labeled human PD-L1-Ig binding to Jurkat cell line over-expressing human PD-1) (Homo sapiens, UniProt Q15116) (assay: Jurkat-PD-1 Cell Binding High-Content Screening Assay (CBA)). Conditions: Jurkat-hPD-1 cells, PE-labeled PD-L1-Ig 20 nM final; read-out: Jurkat HPD1 PDL1 IC50.
T1 construct: expressed in transfected cells; host or cells: Jurkat
T1 sequence (Q15116 25-288): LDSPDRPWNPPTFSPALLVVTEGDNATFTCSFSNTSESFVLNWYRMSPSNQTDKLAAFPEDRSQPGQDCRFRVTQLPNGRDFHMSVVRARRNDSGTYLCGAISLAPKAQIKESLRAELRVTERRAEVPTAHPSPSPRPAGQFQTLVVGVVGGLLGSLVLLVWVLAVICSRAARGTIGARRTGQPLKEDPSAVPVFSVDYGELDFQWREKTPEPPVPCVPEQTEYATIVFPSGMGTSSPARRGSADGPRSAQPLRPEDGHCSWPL
How it was run: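 Cells 8×10^3/well, DMEM + 10% FCS; cpd 2 h, 37 °C; PE–PD-L1-Ig 20 nM final, 1 h; PFA fix + Hoechst 33342, 3× dPBS wash; high-content imager.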
CCC(C)[C@@H]1NC(=O)[C@H](Cc2ccc(-c3ccccc3)cc2)NC(=O)[C@H](CC(C)C)NC(=O)[C@H](Cc2c[nH]c3ccccc23)NC(=O)[C@H](CC(=O)O)NC(=O)[C@H](Cc2ccc(C(=O)O)cc2)NC(=O)[C@H](Cc2ccc(OCC(=O)O)cc2)NC(=O)CSC[C@@H](C(=O)N[C@@H](CC(N)=O)C(=O)NCCOCCOCC(=O)N[C@@H](CN)C(=O)NCCCCCCCCCCC(=O)O)NC(=O)[C@H](CO)NC(=O)[C@H](C(C)C)NC(=O)[C@H](CC2CCCCC2)NC(=O)[C@H](CCN)NC(=O)[C@@H](CC(C)C)NC(=O)[C@H](C)N(C)C1=O (stereo partly drawn) [Example 2075] ({CH2CO}-Y(Carboxymethyl)[Phe(4-COOH)]DWL[Bip][Ile(3ξ)][NMeA][dL][Dab][Cha]VSCN[AEEA][Dap][Aun]-OH; thioether N-14) was tested, and the IC50 was 15.5 nM.
CCC(C)[C@@H]1NC(=O)[C@H](Cc2ccc(-c3ccccc3)cc2)NC(=O)[C@H](CC(C)C)NC(=O)[C@H](Cc2c[nH]c3ccccc23)NC(=O)[C@H](CC(=O)O)NC(=O)[C@H](Cc2ccc(O)cc2)NC(=O)[C@H](CC(N)=O)NC(=O)CSC[C@@H](C(=O)N[C@@H](C)C(=O)NCCOCCOCC(=O)N[C@@H](CCCN)C(=O)NCCCCCCCCCCC(=O)O)NC(=O)[C@H](CO)NC(=O)[C@H](C(C)C)NC(=O)[C@H](CC2CCCCC2)NC(=O)[C@H](CC(N)=O)NC(=O)[C@@H](CC(C)C)NC(=O)[C@H](C)N(C)C1=O (stereo partly drawn) [Example 2076] ({CH2CO}-NYDWL[Bip][Ile(3ξ)][NMeA][dL]N[Cha]VSCA[AEEA][Orn][Aun]-OH; thioether N-14) gave an IC50 of 54.3 nM.
With CCC(C)[C@@H]1NC(=O)[C@H](Cc2ccc(-c3ccccc3)cc2)NC(=O)[C@H](C(C)C)NC(=O)[C@H](Cc2c[nH]c3ccccc23)NC(=O)[C@H](CC(=O)O)NC(=O)[C@H](Cc2ccc(O)cc2)NC(=O)[C@H](Cc2ccncc2)NC(=O)CSC[C@@H](C(=O)N[C@@H](C)C(=O)NCCOCCOCC(=O)N[C@@H](CCCN)C(=O)NCCCCCCCCCCC(=O)O)NC(=O)[C@H](C(C)O)NC(=O)[C@H](C(C)C)NC(=O)[C@H](CC2CCCCC2)NC(=O)[C@H](CCN)NC(=O)[C@@H](CC(C)C)NC(=O)[C@H](C)N(C)C1=O (stereo partly drawn) [Example 2077] ({CH2CO}-[4Pal]YDWV[Bip][Ile(3ξ)][NMeA][dL][Dab][Cha]V[Thr(3ξ)]CA[AEEA][Orn][Aun]-OH; thioether N-14) the IC50 was 14.1 nM.
CCC(C)[C@@H]1NC(=O)[C@H](Cc2ccc(-c3ccccc3)cc2)NC(=O)[C@H](C(C)C)NC(=O)[C@H](Cc2c[nH]c3ccccc23)NC(=O)[C@H](CC(=O)O)NC(=O)[C@H](Cc2ccc(O)cc2)NC(=O)[C@H](Cc2ccncc2)NC(=O)CSC[C@@H](C(=O)N[C@@H](CC(N)=O)C(=O)NCCOCCOCC(=O)N[C@@H](CCCN)C(=O)NCCCCCCCCCCC(=O)O)NC(=O)[C@H](CO)NC(=O)[C@H](C(C)C)NC(=O)[C@H](CC2CCCCC2)NC(=O)[C@H](CCN)NC(=O)[C@@H](CC(C)C)NC(=O)[C@H](C)N(C)C1=O (stereo partly drawn) [Example 2078] ({CH2CO}-[4Pal]YDWV[Bip][Ile(3ξ)][NMeA][dL][Dab][Cha]VSCN[AEEA][Orn][Aun]-OH; thioether N-14) was tested, and the IC50 was 12.2 nM.
CCC(C)[C@@H]1NC(=O)[C@H](Cc2ccc(-c3ccccc3)cc2)NC(=O)[C@H](CC(C)C)NC(=O)[C@H](Cc2c[nH]c3ccccc23)NC(=O)[C@H](CC(=O)O)NC(=O)[C@H](Cc2ccc(C(=O)O)cc2)NC(=O)[C@H](Cc2ccc(OCC(=O)O)cc2)NC(=O)CSC[C@@H](C(=O)N[C@@H](CC(N)=O)C(=O)NCCOCCOCC(=O)N[C@@H](CCN)C(=O)NCCCCCCCCCCC(=O)O)NC(=O)[C@H](CO)NC(=O)[C@H](C(C)C)NC(=O)[C@H](CC2CCCCC2)NC(=O)[C@H](CCN)NC(=O)[C@@H](CC(C)C)NC(=O)[C@H](C)N(C)C1=O (stereo partly drawn) [Example 2079] ({CH2CO}-Y(Carboxymethyl)[Phe(4-COOH)]DWL[Bip][Ile(3ξ)][NMeA][dL][Dab][Cha]VSCN[AEEA][Dab][Aun]-OH; thioether N-14) showed an IC50 of 11.3 nM.
CCC(C)[C@@H]1NC(=O)[C@H](CC(C)C)NC(=O)[C@H](CCN)NC(=O)[C@@H](CC(C)C)NC(=O)[C@H](C)N(C)C(=O)[C@H](C(C)CC)NC(=O)[C@H](Cc2ccc(-c3ccccc3)cc2)NC(=O)[C@H](C(C)CC)NC(=O)[C@H](Cc2c[nH]c3ccccc23)NC(=O)[C@H](CC(=O)O)NC(=O)[C@H](Cc2ccc(OCC(=O)O)cc2)NC(=O)[C@H](C(C)O)NC(=O)CSC[C@@H](C(=O)N[C@H](CC(N)=O)C(=O)NCCOCCOCC(=O)NCCCCCCCCCCC(=O)O)NC(=O)[C@H](CO)NC1=O (stereo partly drawn) [Example 2080] ({CH2CO}-[Thr(3ξ)]Y(Carboxymethyl)DW[Ile(3ξ)][Bip][Ile(3ξ)][NMeA][dL][Dab]L[Ile(3ξ)]SC[dN][AEEA][Aun]-OH; thioether N-14) showed an IC50 of 110 nM.
CCC(C)[C@@H]1NC(=O)[C@H](CC(C)C)NC(=O)[C@H](CCN)NC(=O)[C@@H](CC(C)C)NC(=O)[C@H](C)N(C)C(=O)[C@H](C(C)CC)NC(=O)[C@H](Cc2ccc(-c3ccccc3)cc2)NC(=O)[C@H](C(C)CC)NC(=O)[C@H](Cc2c[nH]c3ccccc23)NC(=O)[C@H](CC(=O)O)NC(=O)[C@H](Cc2ccc(OCC(=O)O)cc2)NC(=O)[C@H](C(C)O)NC(=O)CSC[C@@H](C(=O)N[C@@H](CN)C(=O)NCCOCCOCC(=O)NCCCCCCCCCCC(=O)O)NC(=O)[C@H](CO)NC1=O (stereo partly drawn) [Example 2081] ({CH2CO}-[Thr(3ξ)]Y(Carboxymethyl)DW[Ile(3ξ)][Bip][Ile(3ξ)][NMeA][dL][Dab]L[Ile(3ξ)]SC[Dap][AEEA][Aun]-OH; thioether N-14) gave an IC50 of 206 nM.
With CCC(C)[C@@H]1NC(=O)[C@H](CC(C)C)NC(=O)[C@H](CCN)NC(=O)[C@@H](CC(C)C)NC(=O)[C@H](C)N(C)C(=O)[C@H](C(C)CC)NC(=O)[C@H](Cc2ccc(-c3ccccc3)cc2)NC(=O)[C@H](C(C)CC)NC(=O)[C@H](Cc2c[nH]c3ccccc23)NC(=O)[C@H](CC(=O)O)NC(=O)[C@H](Cc2ccc(OCC(=O)O)cc2)NC(=O)[C@H](C(C)O)NC(=O)CSC[C@@H](C(=O)N[C@H](CC(N)=O)C(=O)NCCOCCOCC(=O)N[C@@H](CCCN)C(=O)NCCCCCCCCCCC(=O)O)NC(=O)[C@H](CO)NC1=O (stereo partly drawn) [Example 2082] ({CH2CO}-[Thr(3ξ)]Y(Carboxymethyl)DW[Ile(3ξ)][Bip][Ile(3ξ)][NMeA][dL][Dab]L[Ile(3ξ)]SC[dN][AEEA][Orn][Aun]-OH; thioether N-14) the IC50 was 169 nM.
CC(C)C[C@H]1NC(=O)[C@H](C)N(C)C(=O)[C@H](C(C)C)NC(=O)[C@H](Cc2ccc(-c3ccccc3)cc2)NC(=O)[C@H](C(C)C)NC(=O)[C@H](Cc2c[nH]c3ccccc23)NC(=O)[C@H](CC(=O)O)NC(=O)[C@H](Cc2ccc(OCC(=O)O)cc2)NC(=O)[C@H](CCCCNC(=N)N)NC(=O)CSC[C@@H](C(=O)NCC(=O)NCCOCCOCC(=O)N[C@@H](CCCN)C(=O)NCCCCCCCCCCC(=O)O)NC(=O)[C@H](CO)NC(=O)[C@H](C(C)C)NC(=O)[C@H](CC2CCCCC2)NC(=O)[C@H](CCN)NC1=O [Example 2084] ({CH2CO}-[hArg]Y(Carboxymethyl)DWV[Bip]V[NMeA][dL][Dab][Cha]VSCG[AEEA][Orn][Aun]-OH; thioether N-14) showed an IC50 of 9.5 nM.
In the case of CC(C)C[C@H]1NC(=O)[C@H](C)N(C)C(=O)[C@H](C(C)C)NC(=O)[C@H](Cc2ccc(-c3ccccc3)cc2)NC(=O)[C@H](C(C)C)NC(=O)[C@H](Cc2c[nH]c3ccccc23)NC(=O)[C@H](CC(=O)O)NC(=O)[C@H](Cc2ccc(OCC(=O)O)cc2)NC(=O)[C@H](CN)NC(=O)CSC[C@@H](C(=O)NCC(=O)NCCOCCOCC(=O)N[C@@H](CCCCN)C(=O)NCCCCCCCCCCC(=O)O)NC(=O)[C@H](CO)NC(=O)[C@H](C(C)C)NC(=O)[C@H](CC2CCCCC2)NC(=O)[C@H](CCN)NC1=O [Example 2085] ({CH2CO}-[Dap]Y(Carboxymethyl)DWV[Bip]V[NMeA][dL][Dab][Cha]VSCG[AEEA]K[Aun]-OH; thioether N-14), the IC50 is reported as 9.8 nM.
CCC(C)[C@@H]1NC(=O)[C@H](Cc2ccc(-c3ccccc3)cc2)NC(=O)[C@H](CC(C)C)NC(=O)[C@H](Cc2c[nH]c3ccccc23)NC(=O)[C@H](CC(=O)O)NC(=O)[C@H](Cc2ccc(O)cc2)NC(=O)[C@H](Cc2ccncc2)NC(=O)CSC[C@@H](C(=O)N[C@H](CCCN)C(=O)NCCOCCOCC(=O)NCCCCCCCCCCC(=O)O)NC(=O)[C@H](CO)NC(=O)[C@H](C(C)C)NC(=O)[C@H](CC2CCCCC2)NC(=O)[C@H](CCN)NC(=O)[C@@H](CC(C)C)NC(=O)[C@H](C)N(C)C1=O (stereo partly drawn) [Example 2086] ({CH2CO}-[4Pal]YDWL[Bip][Ile(3ξ)][NMeA][dL][Dab][Cha]VSC[dOrn][AEEA][Aun]-OH; thioether N-14) showed an IC50 of 18.5 nM.
CCC(C)[C@@H]1NC(=O)[C@H](Cc2ccc(-c3ccccc3)cc2)NC(=O)[C@H](CC(C)C)NC(=O)[C@H](Cc2c[nH]c3ccccc23)NC(=O)[C@H](CC(=O)O)NC(=O)[C@H](Cc2ccc(OCC(=O)O)cc2)NC(=O)[C@H](Cc2ccncc2)NC(=O)CSC[C@@H](C(=O)N[C@@H](CCCN)C(=O)NCCOCCOCC(=O)NCCCCCCCCCCC(=O)O)NC(=O)[C@H](CO)NC(=O)[C@H](C(C)C)NC(=O)[C@H](CC2CCCCC2)NC(=O)[C@H](Cc2c[nH]cn2)NC(=O)[C@@H](CC(C)C)NC(=O)[C@H](C)N(C)C1=O (stereo partly drawn) [Example 2087] ({CH2CO}-[4Pal]Y(Carboxymethyl)DWL[Bip][Ile(3ξ)][NMeA][dL]H[Cha]VSC[Orn][AEEA][Aun]-OH; thioether N-14) gave an IC50 of 50.7 nM.
With CCC(C)[C@@H]1NC(=O)[C@H](Cc2ccc(-c3ccccc3)cc2)NC(=O)[C@H](CC(C)C)NC(=O)[C@H](Cc2cccc(C)c2)NC(=O)[C@H](CC(=O)O)NC(=O)[C@H](Cc2ccc(OCC(=O)O)cc2)NC(=O)[C@H](Cc2ccncc2)NC(=O)CSC[C@@H](C(=O)N[C@@H](CCCN)C(=O)NCCOCCOCC(=O)NCCCCCCCCCCC(=O)O)NC(=O)[C@H](C(C)O)NC(=O)[C@H](C(C)C)NC(=O)[C@H](CC2CCCCC2)NC(=O)[C@H](CCN)NC(=O)[C@@H](CC(C)C)NC(=O)[C@H](C)N(C)C1=O (stereo partly drawn) [Example 2088] ({CH2CO}-[4Pal]Y(Carboxymethyl)D[Phe(3-Me)]L[Bip][Ile(3ξ)][NMeA][dL][Dab][Cha]V[Thr(3ξ)]C[Orn][AEEA][Aun]-OH; thioether N-14) the IC50 was 12.8 nM.
